Measured values from publication PMC11129186, “New Improved cGMP Analogues to Target Rod Photoreceptor Degeneration” (Journal of Medicinal Chemistry, 2024).
“And” between values parts separate entries of the source, which are not always exact repeats. Equal values may be shown once. Read-outs that look alike come from different tables or passages of the source.

How the values were obtained:
[1] = tested on: primary photoreceptor cells derived from rd1 mutant mice; assay: Cell death TUNEL assay in primary photoreceptors; format: cell-based, mouse; settings: for neuroprotective effect, cell death (TUNEL): 50 μM added at day 10 of differentiation, read at day 11
Excerpt: To address this possible limitation of the RP model, we tested the CN03 analogues in another RP in vitro cellular model, previously validated for the analysis of cGMP analogues.[10] This model is based on the primary cell culture and differentiation of cells derived from rd1 mutant eyes. The rd1 mouse is one of the best characterized murine models of RP. It carries a mutation in the Phosphodiesterase 6b (Pde6b) gene. Lack of PDE6 function causes high intracellular levels of cGMP in rod photoreceptor cells.[26],[9] […] CN03-Na^+, SP-CN03, and dithio-CN03 were administered to the culture of rd1 mutant cells at a concentration of 50 μM at day 10 of differentiation. The concentration of the compounds and the time of treatment were chosen based on the previously published study in which cGMP inhibitory analogues were tested in this type of primary photoreceptors.[10] Cell death was then analyzed by the TUNEL assay at day 11 of in vitro differentiation.
rd1 mutant mice were purchased from Charles River Italy. The protocol was approved by the Ethical Committee of the University of Modena and Reggio Emilia and by the Italian Ministero della Salute (150/2021-PR). Primary neurospheres were derived from the eyes of rd1 mutant mice, as previously reported.[32] Retinal stem cells in neurospheres were differentiated into photoreceptors, as previously reported.[10]rd1 mutant photoreceptor cells underwent spontaneous cell death after differentiation for 11 days. At day 10, 50 μM of either CN03-Na^+ or SP-CN03 or dithio-CN03 were added to the cells in culture and cell death was assessed 1 day later (day 11 of differentiation) by TUNEL assay (see above for detailed procedure).

[2] = tested on: 661W-A11 cells stressed with zaprinast; assay: Dose-response curves of cell viability (MTT) under zaprinast stress; format: cell-based, mouse; settings: for EC50: read-out: EC50 of cell viability
Protocol: For this analysis, we used the 661W-A11 cells stressed with zaprinast and exposed them to scaling concentrations of either dithio-CN03 or SP-CN03 or CN03-Na^+. The effects were evaluated by the cell viability MTT assay (Figure 5). […] Nevertheless, CN03-Na^+ and SP-CN03 reached up to 70–80% cell viability, while dithio-CN03 could protect rod photoreceptors to almost 100% cell viability at the highest doses (Figure 5). Although dithio-CN03 was considered more hydrophobic, and its entrance in the cells could have been facilitated by this feature, the calculated EC50 was nonetheless similar to more hydrophilic analogues.
661W-A11 cells were seeded in 96-well plates at a density of 6000 cells/well, and the following day they were pretreated with scaling concentrations of either CN03-Na^+ or SP-CN03 or dithio-CN03 for 2 h and then stressed with zaprinast 200 μM in the presence of the compounds for 48 h. Cell viability was assessed by MTT assay (see above for detailed procedure). OD was measured at 570 nm. Data were plotted and EC50 calculated using GraphPad Prism version 7.

[3] = tested on: 661W-A11 cells stressed with zaprinast; assay: Cell viability MTT assay in cells stressed with zaprinast; format: cell-based, mouse; settings: 50 μM compound, 200 μM zaprinast for 48 h
Protocol: The neuroprotective activity of the newly developed compounds was then evaluated in 661W-A11 cells stressed with zaprinast. Viability was assessed by an MTT assay.
(§1) 661W-A11 cells were seeded in 96-well plates at a density of 6000 cells/well or in 24-well plates at a density of 20,000 cells/well. Twenty-four h after seeding, cells were pretreated with 50 μM of either CN03-Na^+ or CN03 or SP-CN03 or oxo-CN03 or dithio-CN03 for 2 h, followed by 200 μM zaprinast treatment for 48 h in the presence of the compounds. Control groups were treated with an equal volume of vehicle, H2O or DMSO.
661W-A11 cells were cultured on 96-well plates at a density of 6000 cells/well. After compound treatments, the culture medium was replaced with medium containing 1 mg/mL of MTT (Sigma) and cells were cultured for 90 min at 37 °C. Viability was assessed by MTT assay (see above for detailed procedure). OD was measured at 570 nm.

[4] = tested on: 661W-A11 cells stressed with zaprinast; assay: Cell death TUNEL assay in cells stressed with zaprinast; format: cell-based, mouse; settings: 50 μM compound, 200 μM zaprinast for 48 h
Protocol: Viability assay cannot discriminate between protection from cell death and possible increased proliferation induced by the treatment. To discriminate between these two responses, we analyzed cell death by the TUNEL assay that detects dying cells based on fragmented chromatin. The TUNEL assay confirmed data obtained with the MTT assay (Figure 3B,C).
as §1
661W-A11 cells were seeded in 24-well plates at a density of 20,000 cells/well. After treatments, cells were fixed with 2% paraformaldehyde for 10 min and permeabilized with 1 M Na^+ citrate and 0.1% Triton X-100 on ice for 2 min. Cells were incubated with TUNEL solution “In situ Cell Death Detection Kit” TMR Red (Roche) for 30 min at 37 °C, and cell nuclei were stained with 0.1 μg/mL 4′,6-diamidin-2-fenilindolo (DAPI). […] The quantification of percentage of dead cells was based on the ratio of TUNEL-labeled cells on the total number of cells (DAPI-labeled).

[5] = Aqueous solubility at room temperature (phase solubility, HPLC); format: physicochemical
Protocol: Physicochemical properties of dithio-CN03 were characterized and compared to CN03. […] Salt forms of CN03, for example, were prepared varying in aqueous solubility as low as 0.01 mg/mL.[12] To facilitate future development of reactive crystallizations toward other salt forms, a temperature-dependent solubility was also measured between 20 and 75 °C. The resulting solubility curve can be found in the Supporting Information (Figure S38).
The solubility of dithio-CN03 was measured at room temperature and in quadruplicate by phase solubility techniques. Saturated mixtures of the compound were prepared by adding excess starting material to 4 mL vials containing 2 mL of deionized water. They were allowed to equilibrate for 24 h using mild agitation before recording the pH. The clear solution was separated from the solids by filtration with a Cytiva Whatman Mini-Uniprep polypropylene 0.45 μm filter device and diluted to an appropriate analytical concentration where needed. The sample was then analyzed by HPLC, and the solubility was determined by integrating the area of the peak of interest against a standard curve. The solids were also analyzed by XRPD to record the crystal modification obtained.
Solubility data for dithio-CN03
Table S1: Aqueous solubility at room temperature
Sample mg / mL pH of mixture […]
(1 picture or pasted object on this page, not shown here)

[6] = Thermal analysis (DSC and TG); format: physicochemical; settings: crystal modification I; scan 10 °C/min
Protocol: Finally, we performed thermal analyses on crystal modification I by using differential scanning calorimetry (DSC) and thermogravimetry (TG), both of which confirmed a behavior analogous to that of CN03. There were no observable melting points. Instead, there was only a sharp exothermic event on DSC at 170 °C associated with significant mass loss on TG, which we interpreted as a thermal decomposition of the compound (Figure 1B). It should be noted that decomposition peaks on DSC and TG are not indicative of physical stability (e.g., melting point, and solubility). Since the material was crystalline, it was considered to own a melting point at a higher temperature than this decomposition.
DSC analyses were carried out on a Mettler DSC822e, equipped with a Thermo Haake EK45/MT cooler. The samples were weighed into a 40 μL Al-cup, which was then closed with a pierced lid. The sample was scanned from 25 to 300 °C, with a scan rate of 10 °C/min.
TG was performed on a Mettler TGA/SDTA 851e, equipped with a Haake C50P cooler. Alternatively, thermogravimetric and DSC analyses were carried out simultaneously in a Mettler Toledo TGA/DSC 3+. The samples were weighed into a 100 μL Al-cup, and this was flushed with dry nitrogen gas during the analysis. The sample was scanned from 25 to 300 °C, with a scan rate of 10 °C/min.

[7] = tested on: 661W-A11 cells; assay: Toxicity assay, MTT viability of unstressed cells; format: cell-based, mouse; settings: 1 μM to 1 mM, 48 h; dithio-CN03 in DMSO, compared to DMSO vehicle
Excerpt: With the aim of developing a new treatment for RP, we evaluated possible toxic effects of the cGMP analogues on a retinal cell line. The target of the treatment for RP is rod photoreceptors, the cells that die due to increased intracellular levels of cGMP during the progression of retinal degeneration. […] Furthermore, this cell line can be stressed with zaprinast, a phosphodiesterase 6 (PDE6) inhibitor, to increase intracellular cGMP and activate cell death pathways, as found in the RP mutant retina. […] A toxicity test was set up by exposing 661W-A11 cells to increasing doses of the four new TEA salts of CN03: CN03, SP-CN03, oxo-CN03, and dithio-CN03 (Figure 2). Viability of the cells was assessed by an MTT assay that measures cell metabolic activity. […]
661W-A11 cells were seeded in 96-well plates at a density of 6000 cells/well, and the following day they were treated with scaling concentrations of either CN03-Na^+, CN03, SP-CN03, oxo-CN03, or dithio-CN03 for 48 h. […] Cell viability was assessed with MTT (3-(4,5-dimethylthiazol-2-yl)-2,5-diphenyl tetrazolium bromide, Sigma). […] The crystals were shaken for 10 min to dissolve and the optical density (OD) was measured at a wavelength of 570 nm.

[8] = target: PDE6 purified enzyme; parameters: method as in PMID 16123402; settings: cited from earlier work
[9] = tested on: photoreceptor cells of murine models of RP; parameters: method as in PMID 29531030; settings: in vivo delivered; cited from earlier work
[10] = tested on: PKG; parameters: method as in PMID 29531030; settings: in vitro and in vivo; cited from earlier work
[11] = tested on: CNGC; parameters: method as in PMID 29531030; settings: in vitro and in vivo; cited from earlier work
[12] = saturated aqueous mixture, room temperature

## O=c1c2nc(Br)n([C@@H]3O[C@@H]4CO[P@@]([O-])(=S)O[C@H]4[C@H]3O)c2nc2[nH]c(-c3ccccc3)cn12.[Na+] [CN03-Na^+]
[1]
  neuroprotective effect, cell death (TUNEL): decreased the percentage of cell death
[2]
  cell viability reached at the highest doses: 70–80%
[2]; 200 μM zaprinast for 48 h, doses 1 μM to 1 mM, MTT
  EC50: 16.9 µM

## O=c1c2nc(Br)n([C@@H]3O[C@@H]4CO[P@](O)(=S)O[C@H]4[C@H]3O)c2nc2[nH]c(-c3ccccc3)cn12 [SP-CN03, Triethylammonium SP-8-Bromo-β-phenyl-1,N^2-ethenoguanosine-3′,5′-cyclicmonophosphorothioate]
[1]
  neuroprotective effect, cell death (TUNEL): neuroprotective effect similar to CN03-Na^+
[1]; 50 μM, 24 h
  toxicity to photoreceptors: not toxic to photoreceptors
[3]
  protective effect on cell viability (MTT): increasing cell viability
[2]; 200 μM zaprinast for 48 h, MTT
  cell viability reached at the highest doses: 70–80%
[2]; Mus musculus, 661W-A11, 48 h
  EC50: 16 µM

## O=c1c2nc(Br)n([C@@H]3O[C@@H]4COP(=O)(O)O[C@H]4[C@H]3O)c2nc2[nH]c(-c3ccccc3)cn12 [oxo-CN03, Triethylammonium 8-Bromo-β-phenyl-1,N^2-ethenoguanosine-3′,5′-cyclicmonophosphate]
[4]
  protection from cell death (TUNEL): failure of oxo-CN03 to protect
[3]
  protective effect on cell viability (MTT): All CN03 compounds, except oxo-CN03, were able to improve cell viability

## CCN(CC)CC.O=c1c2nc(Br)n([C@@H]3O[C@@H]4COP(=S)(S)O[C@H]4[C@H]3O)c2nc2[nH]c(-c3ccccc3)cn12 (stereo partly drawn) [dithio-CN03, Triethylammonium 8-Bromo-β-phenyl-1,N^2-ethenoguanosine-3′,5′-cyclicmonophosphorodithioate]
[5]; aqueous
  solubility compared to CN03: lower solubility
[5]; deionized water, pH 5.6, deionized H2O, room temperature, corresponds to crystal modification II (trihydrate), read-out: aqueous solubility
  solubility at 24 h: 1170 µg/mL
[5]; deionized water, pH 5.6, deionized H2O, room temperature, read-out: aqueous solubility
  solubility at 24 h: 1800 µM
[5]; deionized water, water, thermodynamic from solid, room temperature, deionized water, 24 h equilibration, read-out: aqueous solubility, single samples 1-4 (Table S1)
  solubility at 24 h: 1160 µg/mL
[5]; room temperature, deionized water, 24 h equilibration
  aqueous solubility, single samples 1-4 (Table S1): 1.198 mg/mL and 1.160 mg/mL and 1.169 mg/mL
[5]; [12]
  pH of mixture, Average (Table S1): 5.6
  pH of mixture, single samples 1-4 (Table S1): 4.7 and 5.6 and 5.9 and 6.3
[1]
  neuroprotective effect, cell death (TUNEL): significantly better neuroprotective activity
[4]
  protection from cell death (TUNEL): highest neuroprotective activity
[6]
  exothermic event on DSC with mass loss on TG, interpreted as thermal decomposition: 170 °C
[3]
  protective effect on cell viability (MTT): significantly higher protective effects compared to CN03-Na^+
[2]; 200 μM zaprinast for 48 h, MTT
  cell viability reached at the highest doses: ~100%
[2]; Mus musculus, 661W-A11, 48 h
  EC50: 20 µM
[7]
  toxicity (cell viability, MTT): lowest toxicity

## CCCOc1ccccc1-c1nc2nn[nH]c2c(=O)[nH]1 [zaprinast]
[8]
  Ki: 30 nM

## O=c1c2nc(Br)n([C@@H]3O[C@@H]4CO[P@@](O)(=S)O[C@H]4[C@H]3O)c2nc2[nH]c(-c3ccccc3)cn12 [CN03, RP-8-Br-PET-cGMPS]
[9]
  preservation of photoreceptor cells: could preserve photoreceptor cells of murine models of RP
[10]
  interference with PKG activity: interfere with PKG activity
[11]
  block of Ca2+ influx through the CNGC: block Ca^2+ influx through the CNGC
